Patent publication US12369578B2, “Use of a nematicide composition” (DESARROLLO AGRICOLA Y MINERO, S.A., priority 2019, dated 2025)

Experiments:
M. incognita [1] = assay: Juvenile (J2) mortality, laboratory test in sterile water; format: in vivo; conditions: all concentrations (0.025%, 0.05%, 0.1%), in less than 24 h
Source text: (§1) The aim of the protocol was to evaluate the nematicidal efficacy of the formulation and of the active ingredients, cinnamic aldehyde and terpene alcohol, separately. For this trial M. incognita and M. javanica nematodes were used.
(§2) • 1. Untreated control specimen: Eggs or juvenile nematodes in sterile water. • 2. Eggs or juveniles with 0.025% of the formulation in sterile water. • 3. Eggs or juveniles with 0.05% of the formulation in sterile water. • 4. Eggs or juveniles with 0.1% of the formulation in sterile water. • 5. Eggs or juveniles with 0.025% of terpene alcohol in sterile water plus innocuous solvent. • 6. Eggs or juveniles with 0.05% of terpene alcohol in sterile water plus innocuous solvent. • 7. Eggs or juveniles with 0.1% of terpene alcohol in sterile water plus innocuous solvent. • 8. Eggs or juveniles with 0.025% of cinnamic aldehyde in sterile water plus innocuous solvent. • 9. Eggs or juveniles with 0.05% of cinnamic aldehyde in sterile water plus innocuous solvent. • 10. Eggs or juveniles with 0.1% of cinnamic aldehyde in sterile water plus innocuous solvent. Results:
(§3) The treatments with juveniles hatched at 0 h, 24 h, 48 h and 72 h. The number of hatched eggs was determined approximately every 72 h for 3-4 weeks. […]

M. incognita [2] = assay: Egg hatching, laboratory test in sterile water; format: in vivo; conditions: M. incognita eggs; 0.025%, 0.05%, 0.1%; counts about every 72 h for 3-4 weeks
Source text: as §1, §2, §3

## O=C/C=C/c1ccccc1 [cinnamic aldehyde, (2E)-3-phenylprop-2-enal]
M. incognita [1]
  mortality of J2: 100%
M. incognita [2]
  egg hatching: inhibited the hatching of juveniles
